The text below walks through data of patent publication US9527849B2, “Salt and polymorph of pyrazolopyrimidinone compound, and pharmaceutical composition containing the same, preparation method and use thereof” (TOPHARMAN SHANGHAI CO., LTD., priority 2011, dated 2016).

Entries after “also recorded” stand apart in the source; their conditions may differ. Structures can show the parent of a compound that is named as a salt. Where two headings read alike, the source gives them in different places. A value given as a limit tells only on which side of the number the result lay.

A short description of data set [1]: Comparison of salts and crystalline forms (crystal water, static, stability, component, crystalline form). In kind it is physicochemical.
The next data set addresses PDE6. Kind of data set: In vitro activity against PDE isoenzyme. It is filed as biochemical.
Another data set deals with PDE1. Kind of data set: In vitro activity against PDE isoenzyme. The settings on record: for IC50: PDE1. In kind it is biochemical.
Data set [2] can be described thus: Comparison of appearance, characters and odor. It is filed as physicochemical. An excerpt:
The basic compound Z and various salts of compound Z were selected to compare the appearance and characters.

The nature of data set [3]: Impact factor stability test (high temperature, high humidity, light exposure). It is filed as physicochemical. The settings on record: for chemical stability (in words): high temperature, high humidity. The text has this: The basic compounds of compound Z and the maleate thereof were selected to compare the chemical stability through an impact factor test, and results were shown in Table 8: […]

For a further data set, the target named is PDE8. The experiment in a line: In vitro activity against PDE isoenzyme. In kind it is biochemical. The settings on record: for IC50: PDE8.
The target in a further data set is PDE5 (Homo sapiens, UniProt O76074). Kind of data set: In vitro activity against PDE isoenzyme. It is filed as biochemical.
A further data set deals with PDE10 (Homo sapiens, UniProt Q9Y233). The experiment in a line: In vitro activity against PDE isoenzyme. It is filed as biochemical.
A further data set addresses PDE2 (Homo sapiens, UniProt O00408). Kind of data set: In vitro activity against PDE isoenzyme. In kind it is biochemical.
The nature of data set [4]: Hygroscopicity, moisture weight gain in desiccator. In kind it is physicochemical. The settings on record: for Moisture weight gain (%): relative humidity 92.5%, 48 hours, room temperature. Here is the method:
The hygroscopicities of various salts of compound Z were studied. A certain amount of the sample was placed in a precisely-weighted glass weighing bottle with a stopper to accurately weight. Then the open glass weighing bottle was placed in a desiccator (the saturated potassium nitrate solution was placed at the lower part of the desiccator, the relative humidity was 92.5%) and stood for 48 hours at room temperature. And then the glass weighing bottle was covered with the stopper and weighted again. The absorbent weight can be calculated.

A further data set has as its target PDE3. Kind of data set: In vitro activity against PDE isoenzyme. It is filed as biochemical.
The target in the next data set is PDE7. Kind of data set: In vitro activity against PDE isoenzyme. In kind it is biochemical. The settings on record: for IC50: PDE7.
Another data set addresses PDE4. The experiment in a line: In vitro activity against PDE isoenzyme. In kind it is biochemical. The settings on record: for IC50: PDE4.
The next data set addresses PDE9 (Homo sapiens, UniProt O76083). The experiment in a line: In vitro activity against PDE isoenzyme. It is filed as biochemical.
For data set [5], the system named is rats with pulmonary arterial hypertension. The experiment in a line: Pulmonary arterial hypertension (PAH) rats, chronic oral administration. In kind it is in vivo. The settings on record: each dose group, FIG. 17. An excerpt:
(§1) The effects of maleate of compound Z on pulmonary artery pressure of pulmonary arterial hypertension rats were studied according to the method described in the reference (J Pharmacol Sci, 111, 235-243 (2009)).

Data set [6] shares this test system. Kind of data set: Pulmonary arterial hypertension (PAH) rats, single intravenous administration. It is filed as in vivo. The settings on record: single intravenous administration of 1 mg/kg, FIG. 18.
From the text: as §1

Data set [7] deals with cavernous pressure in rats. Kind of data set: Cavernous pressure in rats induced by electric stimulus to the erectile nerve (ED). It is filed as in vivo. The settings on record: rat, 2.50-5.00 mg/kg through duodenum; FIG. 19. An excerpt: The effect of maleate of compound Z on the cavernous pressure variation in rats induced by the electric stimulus to the erectile nerve was studied according to the method described in the reference (International Journal of Impotence Research (2002) 14, 251-255).

A further data set addresses PDE11 (Homo sapiens, UniProt Q9HCR9). The experiment in a line: In vitro activity against PDE isoenzyme. It is filed as biochemical.
Data set [8] in a line: Comparison of solubility in water and buffer solutions. The conditions noted are these: for solubility: thermodynamic from solid; for solubility (in words): in water and in other solvents. In kind it is physicochemical. How it is done:
The basic compound Z and various salts of compound Z were selected to compare the solubility. Appropriate amount of sample was weighed, placed in glass tubes. The predetermined solvent was added gradually and the extension of clear of the solution was observed. The solvent included the follows: pure water (pH 6.2), hydrochloric acid solution (pH1.0), a standard potassium hydrogen phthalate buffer solution (pH 4.0), and a mixed phosphate buffer solution (pH 6.86).

For data set [9], the system named is rats cavernous body pressure/arterial blood pressure (ICP/BP). The experiment in a line: Erectile dysfunction (ED) efficacy trial in vivo in rats, method of WO2007056955. The conditions noted are these: Dose 10 mg/kg, after the administration.
[10] abbreviates: High temperature, 5 days, listed as Compound Z (basic).
The mark [11] stands for this setting: High temperature, 10 days, listed as Compound Z (basic).
[12] abbreviates: Light exposure, 5 days, listed as Compound Z (basic).
[13] abbreviates: Light exposure, 10 days, listed as Compound Z (basic).

Chain of PDE11 (Q9HCR9 whole entry): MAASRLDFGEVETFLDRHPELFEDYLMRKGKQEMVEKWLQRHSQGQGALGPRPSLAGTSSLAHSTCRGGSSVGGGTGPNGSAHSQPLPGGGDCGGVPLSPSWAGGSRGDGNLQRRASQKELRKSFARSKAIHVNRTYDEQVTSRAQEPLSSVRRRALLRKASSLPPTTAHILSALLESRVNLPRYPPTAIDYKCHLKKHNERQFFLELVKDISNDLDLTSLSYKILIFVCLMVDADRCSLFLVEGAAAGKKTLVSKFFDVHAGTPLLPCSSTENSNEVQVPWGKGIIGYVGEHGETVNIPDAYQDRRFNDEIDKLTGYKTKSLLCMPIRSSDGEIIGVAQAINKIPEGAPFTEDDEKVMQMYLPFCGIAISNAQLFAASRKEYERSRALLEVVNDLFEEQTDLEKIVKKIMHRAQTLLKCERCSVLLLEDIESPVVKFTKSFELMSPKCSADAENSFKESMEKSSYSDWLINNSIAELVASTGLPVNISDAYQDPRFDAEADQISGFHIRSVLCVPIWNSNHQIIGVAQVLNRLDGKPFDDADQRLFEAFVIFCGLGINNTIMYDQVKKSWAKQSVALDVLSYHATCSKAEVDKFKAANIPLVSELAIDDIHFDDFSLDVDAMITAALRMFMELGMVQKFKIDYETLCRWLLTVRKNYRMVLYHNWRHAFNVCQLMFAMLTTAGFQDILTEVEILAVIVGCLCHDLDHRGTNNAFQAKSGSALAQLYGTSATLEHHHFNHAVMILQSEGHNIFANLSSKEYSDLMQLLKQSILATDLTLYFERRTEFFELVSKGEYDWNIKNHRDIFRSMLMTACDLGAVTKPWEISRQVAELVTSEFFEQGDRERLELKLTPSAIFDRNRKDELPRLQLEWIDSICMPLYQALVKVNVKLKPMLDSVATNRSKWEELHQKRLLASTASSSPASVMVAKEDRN
Chain of PDE10 (Q9Y233 whole entry): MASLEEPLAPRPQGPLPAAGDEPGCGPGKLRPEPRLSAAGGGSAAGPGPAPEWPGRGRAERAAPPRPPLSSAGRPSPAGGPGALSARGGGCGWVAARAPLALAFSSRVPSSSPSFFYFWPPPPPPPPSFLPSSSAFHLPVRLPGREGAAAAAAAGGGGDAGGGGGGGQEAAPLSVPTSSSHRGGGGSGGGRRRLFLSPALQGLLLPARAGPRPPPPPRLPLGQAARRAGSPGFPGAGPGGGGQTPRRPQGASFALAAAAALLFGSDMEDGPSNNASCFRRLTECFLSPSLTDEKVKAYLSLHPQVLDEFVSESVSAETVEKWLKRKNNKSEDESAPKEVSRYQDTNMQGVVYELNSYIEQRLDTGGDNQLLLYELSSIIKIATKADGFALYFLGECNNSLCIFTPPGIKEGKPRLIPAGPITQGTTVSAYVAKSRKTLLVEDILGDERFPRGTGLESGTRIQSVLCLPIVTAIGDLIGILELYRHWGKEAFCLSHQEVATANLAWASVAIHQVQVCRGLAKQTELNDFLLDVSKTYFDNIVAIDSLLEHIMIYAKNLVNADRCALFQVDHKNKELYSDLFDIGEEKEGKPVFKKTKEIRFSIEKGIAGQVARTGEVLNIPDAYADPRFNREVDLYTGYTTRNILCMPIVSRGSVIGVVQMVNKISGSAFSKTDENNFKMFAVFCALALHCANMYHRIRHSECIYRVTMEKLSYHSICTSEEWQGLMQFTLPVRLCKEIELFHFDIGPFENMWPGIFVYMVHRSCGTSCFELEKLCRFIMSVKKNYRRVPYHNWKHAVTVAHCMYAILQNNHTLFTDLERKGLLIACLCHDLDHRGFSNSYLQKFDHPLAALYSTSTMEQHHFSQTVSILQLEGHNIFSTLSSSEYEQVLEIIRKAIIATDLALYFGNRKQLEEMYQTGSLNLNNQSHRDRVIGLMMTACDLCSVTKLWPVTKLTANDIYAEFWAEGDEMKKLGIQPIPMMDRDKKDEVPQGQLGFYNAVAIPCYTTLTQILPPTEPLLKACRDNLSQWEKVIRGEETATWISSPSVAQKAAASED
Chain of PDE9 (O76083 whole entry): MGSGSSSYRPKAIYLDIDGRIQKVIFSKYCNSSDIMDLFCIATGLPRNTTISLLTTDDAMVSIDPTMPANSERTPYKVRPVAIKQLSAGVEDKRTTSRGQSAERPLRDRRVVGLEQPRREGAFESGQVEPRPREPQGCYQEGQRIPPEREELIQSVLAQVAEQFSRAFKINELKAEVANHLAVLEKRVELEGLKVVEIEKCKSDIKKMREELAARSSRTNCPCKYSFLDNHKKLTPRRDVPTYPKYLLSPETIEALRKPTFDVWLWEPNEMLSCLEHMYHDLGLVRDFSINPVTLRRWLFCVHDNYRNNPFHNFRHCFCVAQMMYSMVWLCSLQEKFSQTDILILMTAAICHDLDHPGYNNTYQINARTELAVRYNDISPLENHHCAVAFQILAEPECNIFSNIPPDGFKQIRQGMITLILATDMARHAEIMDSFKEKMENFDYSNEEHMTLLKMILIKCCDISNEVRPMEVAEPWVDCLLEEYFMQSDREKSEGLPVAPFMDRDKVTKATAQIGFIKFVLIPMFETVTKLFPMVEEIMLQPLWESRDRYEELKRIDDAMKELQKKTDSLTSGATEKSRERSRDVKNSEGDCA
Chain of PDE2 (O00408 whole entry): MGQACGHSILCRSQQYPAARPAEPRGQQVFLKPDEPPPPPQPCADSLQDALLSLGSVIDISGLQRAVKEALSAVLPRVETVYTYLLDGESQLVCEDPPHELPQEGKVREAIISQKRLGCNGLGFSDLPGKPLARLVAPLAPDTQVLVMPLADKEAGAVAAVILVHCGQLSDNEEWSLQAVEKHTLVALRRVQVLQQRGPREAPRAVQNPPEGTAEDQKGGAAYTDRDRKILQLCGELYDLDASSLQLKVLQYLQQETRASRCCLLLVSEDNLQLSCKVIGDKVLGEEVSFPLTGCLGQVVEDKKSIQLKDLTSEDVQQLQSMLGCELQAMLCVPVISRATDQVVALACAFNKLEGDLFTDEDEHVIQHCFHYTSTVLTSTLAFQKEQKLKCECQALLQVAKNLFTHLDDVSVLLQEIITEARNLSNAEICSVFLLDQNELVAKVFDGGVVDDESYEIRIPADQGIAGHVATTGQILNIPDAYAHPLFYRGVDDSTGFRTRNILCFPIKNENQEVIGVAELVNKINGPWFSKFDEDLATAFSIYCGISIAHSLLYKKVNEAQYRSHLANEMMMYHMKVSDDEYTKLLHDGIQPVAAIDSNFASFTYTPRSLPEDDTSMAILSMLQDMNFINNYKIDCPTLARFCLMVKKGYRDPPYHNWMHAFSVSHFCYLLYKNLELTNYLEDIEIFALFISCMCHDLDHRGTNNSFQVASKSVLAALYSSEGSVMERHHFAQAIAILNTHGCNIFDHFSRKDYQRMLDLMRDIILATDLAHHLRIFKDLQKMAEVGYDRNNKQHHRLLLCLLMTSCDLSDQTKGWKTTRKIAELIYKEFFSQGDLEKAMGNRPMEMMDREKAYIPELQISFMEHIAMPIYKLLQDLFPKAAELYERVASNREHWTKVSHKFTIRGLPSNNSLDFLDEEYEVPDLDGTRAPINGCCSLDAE

With `CCCOc1ccc(S(=O)(=O)N(C)CCN2CCCC2)cc1-c1nc2c(CCC)nn(C)c2c(=O)[nH]1` [Maleate of compound Z, 1-methyl-5-{2-propoxy-5-[[1-methyl-1-(2-pyrrolidin-1-yl)ethyl]aminosulfonyl]phenyl}-3-propyl-1,6-dihydro-7H-pyrazolo[4,3-D]pyrimidin-7-one maleate], the component entry in data set [1] is “constant”. Also, the crystal water result in [1] is listed as “no”. The stability result in data set [1] was “stable”. In addition, in data set [1], the static result is listed as “no”. Also, the concentration for half-maximal inhibition (IC50) at PDE6 (PDE6) was 0.0452 µM; against PDE1, 0.462 µM; against PDE8, more than 100 µM; on PDE5 (PDE5), 0.00228 µM; against PDE10 (PDE10), more than 100 µM; on PDE2 (PDE2), more than 100 µM. For the same molecule, the half-maximal inhibitory concentration (IC50) is 22 µM against PDE3 (PDE3); more than 100 µM at PDE7; 4.07 µM against PDE4; more than 100 µM against PDE9 (PDE9); 6.09 µM at PDE11 (PDE11). Besides, the “IC50(PDEs)/IC50(PDE5)” value is given as 20 at PDE6 (PDE6 vs PDE5); 203 against PDE1 (PDE1 vs PDE5); more than 10000 against PDE8 (PDE8 vs PDE5); more than 10000 against PDE10 (PDE10 vs PDE5); more than 10000 against PDE2 (PDE2 vs PDE5); 9649 against PDE3 (PDE3 vs PDE5). Further, the “IC50(PDEs)/IC50(PDE5)” value against PDE7 (PDE7 vs PDE5) is given as more than 10000; on PDE4 (PDE4 vs PDE5) it was 1785; at PDE9 (PDE9 vs PDE5) it was more than 10000; on PDE11 (PDE11 vs PDE5), 2671. Besides, the Characters result in [2] was “white solid”. In data set [2], the Odor entry is “no bad smell”. For the same molecule, the purity in data set [3] (0 day) is listed as 99.79%; in [3] (High humidity, 5 days) it was 99.79%; in data set [3] (High humidity, 10 days), 99.80%; in [3] (High temperature, 5 days), 99.69%; in data set [3] (High temperature, 10 days), 99.76%; in data set [3] (Light exposure, 5 days), 99.65%. The purity in data set [3] (Light exposure, 10 days) turned out to be 99.68%. The trait entry in data set [3] (0 day) is given as “white”; in [3] (High humidity, 5 days), “white”; in [3] (High humidity, 10 days), “white”; in [3] (High temperature, 5 days), “white”; in data set [3] (High temperature, 10 days) it was “white”; in data set [3] (Light exposure, 5 days), “white”. In addition, the trait entry in data set [3] (Light exposure, 10 days) is given as “white”. The “chemical stability (in words)” value in [3] (light exposure) was “stable”. Besides, the “activity and selectivity for PDE5 enzyme (in words)” value on PDE5 (in vitro enzyme inhibitors screening test) was “high activity and selectivity”. For the same molecule, the “hygroscopicity (in words)” value in data set [4] is listed as “minimal hygroscopicity”. Besides, in [4], the “Moisture weight gain (%)” value amounted to 1.56%. The “pulmonary arterial pressure compared with the model group” value in data set [5] is on record as “significantly reduce”. Moreover, the “pulmonary arterial pressure compared with the positive control group” value in data set [5] was “no significant difference”. Further, the mean aortic pressure entry in data set [6] was “significantly reduce”. Also, in data set [6], the “mean pulmonary artery pressure” value was “significantly reduce”. In addition, the “selectivity for the reduction of pulmonary artery pressure” value in data set [6] is on record as “strong selectivity”. For the same molecule, the “ICP value (cavernous peak pressure)” value in data set [7] was “significantly increased”. In addition, the “ICP/BP values (cavernous peak pressure/carotid arterial blood pressure)” value in data set [7] was “significantly increased”. In addition, the solubility in data set [8] (hydrochloric acid solution, pH 1, simulated gastric fluid, hydrochloric acid solution (pH 1.0), read-out: Solubility, hydrochloric acid solution (pH 1.0)) was more than 42 mg/mL; in data set [8] (mixed phosphate buffer solution, pH 6.86, aqueous buffer, mixed phosphate buffer solution (pH 6.86), read-out: Solubility, buffer solution (pH 6.86)), more than 19.8 mg/mL; in [8] (pure water, pH 6.1, water, Pure water (pH 6.1), read-out: Solubility, Pure water (pH 6.1)), more than 11 mg/mL. In addition, the “ICP/BP increasing rate (%)” value in data set [9] (10 mg/kg) worked out at 80.99 ± 17.01 %.

For `CCCc1nn(C)c2c(=O)[nH]c(-c3cc(S(=O)(=O)N4CCN(C)CC4)ccc3OCC)nc12` [Sildenafil, reference compound], the IC50 at PDE1 is 0.46 µM; at PDE8, more than 100 µM; against PDE7, 46.9 µM; against PDE4, 5.83 µM. For the same molecule, the “ICP/BP increasing rate (%)” value in data set [9] is given as 73.10 ± 36.24 %.

Turning to `CCCOc1ccc(S(=O)(=O)N(C)CCN2CCCC2)cc1-c1nc2c(CCC)nn(C)c2c(=O)[nH]1` (as salt: maleate) [Maleate of compound Z, 1-methyl-5-{2-propoxy-5-[[1-methyl-1-(2-pyrrolidin-1-yl)ethyl]aminosulfonyl]phenyl}-3-propyl-1,6-dihydro-7H-pyrazolo[4,3-D]pyrimidin-7-one maleate], the melting point is 162.5 to 163.3 °C.

Turning to `CCCOc1ccc(S(=O)(=O)N(C)CCN2CCCC2)cc1-c1nc2c(CCC)nn(C)c2c(=O)[nH]1` [Compound Z, 1-methyl-5-{2-propoxy-5-[[1-methyl-1-(2-pyrrolidin-1-yl)ethyl]aminosulfonyl]phenyl}-3-propyl-1,6-dihydro-7H-pyrazolo[4,3-d]pyrimidin-7-one], the Characters result in [2] is “white solid”. Also, the Odor entry in [2] and in data set [2] (listed as compound Z) was “pungent odor” throughout. Further, the trait result is given as “white” in [3] (0 day); “white” in [3] (High humidity, 5 days); “white” in data set [3] (High humidity, 10 days); “pale yellow” in data set [3] (setting [10]); “yellow” in data set [3] (setting [11]); “pale yellow” in data set [3] (setting [12]). In addition, in data set [3] (setting [13]), the trait entry was “pale yellow”. The purity in data set [3] (0 day, listed as Compound Z (basic)) is reported as 98.25%; in data set [3] (High humidity, 5 days, listed as Compound Z (basic)) it was 98.02%; in data set [3] (High humidity, 10 days, listed as Compound Z (basic)), 98.20%; in data set [3] (setting [10]), 94.70%; in data set [3] (setting [11]) it was 94.55%; in data set [3] (setting [12]) it was 72.49%. Further, the purity in data set [3] (setting [13]) amounted to 55.88%. Further, the “chemical stability (in words)” value in data set [3] (light exposure) was “poor chemical stability”; in data set [3] (light exposure, listed as basic compound Z) it was “poor stability”. In data set [3] (light exposure, after 10 days), this molecule came in with a degradation of approximately 50%. For the same molecule, the “Moisture weight gain (%)” value in data set [4] (listed as Basic compound Z) is reported as 0.39%. Moreover, the “Solubility, Pure water (pH 6.1)” value in data set [8] (Pure water (pH 6.1), listed as Compound Z (basic)) is on record as “insoluble”. Moreover, in data set [8] (hydrochloric acid solution (pH 1.0), listed as Compound Z (basic)), the “Solubility, hydrochloric acid solution (pH 1.0)” value is recorded as more than 21 mg/ml. Also, the “solubility (in words)” value was “poor water-solubility” in data set [8] and “significantly less” in [8] (listed as basic compound Z). Further, the “Solubility, buffer solution (pH 6.86)” value in data set [8] (mixed phosphate buffer solution (pH 6.86), listed as Compound Z (basic)) is given as “insoluble”. In [8] (standard potassium hydrogen phthalate buffer solution, pH 4, aqueous buffer, potassium hydrogen phthalate buffer solution (pH 4.0), read-out: Solubility, buffer solution (pH 4.0)), the solubility was more than 5.88 mg/mL. Besides, the “ICP/BP increasing rate (%)” value in data set [9] (listed as basic compound Z, 10 mg/kg) was determined as 72.22 ± 19.28 %.

Turning to “1-methyl-5-{2-propoxy-5-[[1-methyl-1-(2-pyrrolidin-1-yl)ethyl]aminosulfonyl]phenyl}-3-propyl-1,6-dihydro-7H-pyrazolo[4,3-D]pyrimidin-7-one maleate”, the “hygroscopicity (in words)” value in data set [4] is “low moisture absorption; also recorded: no hygroscopicity”.

Usually IC50 stands for the midpoint of a concentration-inhibition curve. The low end stands for higher potency, the high end for lower potency. Broadly, the solubility is the concentration that dissolves in the medium under given conditions. As usually defined, the melting point is the temperature of the solid-liquid transition.
